These results are taken from patent US12053441B2, “Formulations for improving the delivery of hydrophobic agents” (THE ROYAL INSTITUTION FOR THE ADVANCEMENT OF LEARNING / …, priority 2018, dated 2024).

Data set [1] can be described thus: Drop collapse assay (surfactant activity). It counts as physicochemical. As for the experimental part:
Drop collapse assay is a simple detection method of surface active agents. It relies on the capacity of surfactants to destabilize the liquid droplets on an oily surface. The drop-collapsing ability of McC1 along with other known potent surfactants was characterized. For each, 40 ul of compound solution in water was pipetted onto a hydrophobic Parafilm surface and the diameter of the drops was measured 1 min later using a ruler.

How the values of data set [2] were obtained: Solubilization studies. In order to link the surfactant properties of McC1 and its stimulating impact on UQ10 uptake, the solubilization characteristics of McC1 on UQ10 have been determined. First, solubilization test was performed by overnight shaking of a mixture of UQ10 and McC1 in water.
Additional solubilization tests were performed using sonication. Excess amount of UQ10 was mixed with McC1 by sonication for 2 min in water.
Like caspofungin/McC1, surfactin is a cyclic lipopeptide. It is produced from various strains of Bacillus subtilis. Structurally it consists of a peptide chain formed by seven amino acids linked to a β-hydroxyl fatty acid via a lactone bond. It is known for its exceptional surfactant power. […] Then, solubilization test was performed by overnight shaking of a mixture of UQ10 and surfactin in water. The mixture were subjected to brief centrifugation to separate undissolved UQ10 before absorbance of the resultant clear supernatant at 275 nm was measured spectrophotometrically.
Several other surfactants were tested for their ability to solubilize UQ. Briefly, excess amount of UQ10 was mixed with water solution of the tested surfactants using sonication. The resultant suspensions were then filtered through a 0.45 μm syringe filter to remove undissolved UQ10.

The test system of data set [3] is Pdss2/Mclk1 DKO MEFs. The data set is described as follows: Cellular UQ10 levels (quinone quantification by HPLC). It counts as cell-based, mouse. As for the experimental part: (§1) Quantification of quinones. Quinone content was detected and quantified by HPLC as previously described. […] After centrifugation for 5 min at 8,000×g, the hexane layer was collected and evaporated in a vacuum centrifuge. The quinone residue was then dissolved in ethanol and stored at −20° C. until HPLC analysis. The HPLC analysis was performed on a reverse phase C18 column (25.0×0.46 cm, 5 μm, Highchrom) using UV detection at 275 nm (Beckman System Gold). The mobile phase was methanol/ethanol (70:30 v/v) and isocratic elution was used at a flow rate of 1.8 ml/min.

Data set [4] has as its system wildtype MEFs. Described as above. In kind it is cell-based, mouse. As for the experimental part:
as §1

In data set [5] the test system is Pdss2/Mclk1 DKO cells. The data set is described as follows: Oxygen consumption rate (OCR) by Seahorse XF analyzer. In kind it is cell-based, mouse. As for the experimental part:
Measurement of oxygen consumption by Seaborse XF analyzer. Cells were seeded in XF v7 24-well plates (Seahorse Bioscience) at ˜40,000 cells/well for 24 hr. Prior to the measurements, cell medium was replaced with Seahorse XF base medium supplemented with 5.5 mM glucose (Sigma Cat No G8769), 2 mM Glutamax (Thermo Fisher Cat No 35050061) and 1 mM sodium pyruvate and allowed to equilibrate for 1 hour at 37° C. Oxygen consumption was measured first under baseline condition, followed by subsequent addition of 1 μg/ml oligomycin (Sigma Cat No 04876), 0.8 μM FCCP (Sigma Cat No C2920) and a combination of 1 μM rotenone (Sigma Cat No R8875) and 5 μM antimycin A (Sigma Cat No A8674) to assess the basal and maximal mitochondrial respiration rates. Four baseline measurements were recorded before the consecutive addition of the above-mentioned compounds, and three response measurements were taken after the addition of each compound. Results were finally normalized to protein content determined using the Bradford reagent (Bio-Rad). For experiments that involved culturing cells in the presence of lipoprotein-deficient serum (LPDS), cells were grown in culture medium supplemented with LPDS (Sigma S5394) for 1 week before OCR was measured using a Seahorse XF-24 extracellular flux analyzer as described above.

The test system of data set [6] is Pdss2/Mclk1 DKO cells. Nature of the data set: Viability in glucose-free galactose-containing medium (resazurin reduction assay). In kind it is cell-based, mouse. As for the experimental part:
Tissue culture and viability assays. […] Cell viability was determined by resazurin (Sigma Cat No R7017) reduction assay or crystal violet staining following standard procedures.
(§2) The resazurin cell viability assay. Briefly, resazurin was added directly to plates at 1/10 the volume of glucose culture medium. Viable cells with active metabolism can reduce resazurin into resorufin which causes a colour change from blue to pink. After a 2 hr incubation, plates were read on a plate reader (Tecan) to record absorbance at 570 nm and 600 nm. The cell viability was scored as a percentage relative to the signal from untreated glucose-grown wells. Consequently, each screened compound may be described by its effect (no, partial or full rescue) on survival of the KO cells in galactose medium.
The screen also uses cells lacking UQ biosynthesis (e.g., DKO cells) and its protocol is essentially the same as the galactose-only screen except that in step 2, a minimal amount of UQ10 is added into the galactose screening media at a concentration at which the added UQ10 is insufficient by itself to support survival.
(In general: Alamar Blue is a resazurin reagent that responds to reducing activity.)

Data set [7] concerns mitochondria of Pdss2/Mclk1 DKO MEFs. Nature of the data set: UQ levels in mitochondrial extracts. It counts as cell-based, mouse. To be noted: in combination with UQ10, vs UQ10 alone.
From the text: (§3) FIGS. 7A to 7D present exemplary data showing that McC1 is capable of increasing the uptake of exogenous UQ into cells and mitochondria. (A) Bar chart showing change of UQ10 levels (as measured in ng/μg of protein) in Pdss2/Mclk1 DKO MEFs after treatment with UQ10, McC1 alone, or UQ10 and McC1 in combination. **p<0.01, ***p<0.001 (one-way ANOVA). (B) Bar charts presenting exemplary data showing changes of UQ levels in wildtype MEFs after treatment with UQ10, McC1 alone, or both in combination. Results are shown as cellular UQ10 levels (as provided in ng/μg of protein, left panel) or UQ9 levels (as provided in ng/μg of protein, right panel) in untreated cells, after treatment with 12.5 μM of McC1, after treatment with 2.5 μM of UQ10, or after co-treatment UQ10 and McC1. Results are mean±SEM (n=3). ****p<0.0001 (one-way ANOVA). (C) Bar chart presenting exemplary data showing changes of UQ10 and UQ9 levels in mitochondrial extracts from wildtype MEFs after treatment with UQ10 alone, or in combination with McC1. Results are shown as UQ9 and UQ10 levels in ng/μg of protein. Results are mean±SEM (n=3). ****p<0.0001 (student's t-test). (D) Bar chart presenting exemplary data showing changes of UQ10 level in mitochondrial extracts from Pdss2/Mclk1 DKO MEFs after treatment with UQ10 alone, or in combination with McC1. Results are shown as UQ10 levels (as provided in ng/μg of protein) in untreated DKO cells, after treatment with 2.5 μM of UQ10, or after co-treatment 2.5 μM of UQ10 and 12.5 μM of McC1. ND: Not Detectable. Results are mean±SEM (n=3). ****p<0.0001 (one-way ANOVA).
as §1

The subject of data set [8] is mitochondria of wild-type MEFs. The data set is described as follows: UQ levels in mitochondrial extracts. To be noted: in combination with UQ10, vs UQ10 alone. It counts as cell-based, mouse.
From the text: as §3, §1

Data set [9] deals with mouse embryonic fibroblasts (MEFs). Nature of the data set: Effect of PTX/McC1 micelles on cell growth and survival (resazurin reduction assay). It counts as cell-based. To be noted: 2 to 6 days exposure (FIG. 26B). As for the experimental part: To evaluate the antiproliferative activity of PTX/McC1 micelles, we seeded exponentially growing mouse embryonic fibroblasts (MEFs) into 48-well plates, exposed them to PTX/McC1 micelles for 2 to 6 days, and determined the treatment effect on cell growth and survival by comparing the numbers of variable cells before and after the treatment.
Cells were allowed to attach overnight and then the PTX/McC1 solution was added into the culture media to obtain the desired concentrations. After 2 days' treatment, the standard resazurin reduction assay was used to evaluate cell growth and survival.

A short description of data set [10]: Solubilization of paclitaxel (PTX) in water. The note with it: FIG. 25.
Description: (A) Bar graph showing a concentration of soluble PTX in 4 mM McC1 solution. After mixing PTX and McC1 solution, the undissolved residues were removed by filtration through a 0.22 μm pore-size membrane. For determination of the PTX concentration, absorbance at 230 nm was measured and compared to a standard curve generated for known concentrations of PTX in pure methanol.
Data set [11] deals with cells. Nature of the data set: Cellular UQ measurements after treatment with micellar UQ10 solutions (FIG. 22). In kind it is cell-based. The note with it: UQ10 solution prepared with the surfactant, 6 μM UQ10, 1-day. From the text: UQ levels are expressed as ng per mg of protein (mean±SEM). Each bar represents the average of 2 to 3 independent measurements. […] ND: not detected. #p<0.0001 (vs. untreated controls; two-way ANOVA followed by Dunnett's multiple comparison test).

In data set [12] the test system is Mclk1 KO cells. Nature of the data set: Viability in glucose-free galactose-containing medium (resazurin reduction assay). It counts as cell-based, mouse. As for the experimental part:
Tissue culture and viability assays. […] To score growth and viability in galactose, cells were first grown in high glucose DMEM medium to confluency and then switched to glucose-free DMEM media (Thermo Fisher Cat No 26400036) supplemented with 10 mM galactose (Sigma Cat No G5388), 1 mM sodium pyruvate (Thermo Fisher Cat No 11360070), 10% dialyzed FBS (Thermo Fisher Cat No 26400036) and 1% antibiotic-antimycotic solution. Cell viability was determined by resazurin (Sigma Cat No R7017) reduction assay or crystal violet staining following standard procedures.
The screen uses cells lacking UQ (e.g., Mclk1 KO cells) and consists of three key steps: • 1) Day 0: preparation of Mclk1 KO cells in 96-well plates in standard (glucose-containing) culture medium. • 2) Day 1: changing to glucose-free galactose-containing medium and adding compounds to be screened at a concentration of approximately 10 μM. • 3) Day 4 to 6: following 3 to 5 days of incubation with the compound to be screened, media were removed and cell viability was assayed by resazurin reduction assay.
as §2

Data set [13] relates to human Hela cells. Nature of the data set: Cellular UQ10 levels (quinone quantification by HPLC). To be noted: 1 hour treatment, human cells (FIG. 15). It counts as cell-based.
From the text: (A) UQ levels in wild-type MEFs after treatment with McC1-solubilized form of UQ10. (B) UQ levels in human Hela cells after treatment with McC1-solubilized form of UQ10. Results are shown as the levels of UQ9 (white bars, measured as ng/mg of protein) or UQ10 (black bars, measured as ng/mg of protein) in control conditions (+None), after treatment with a formulation containing McC1-solubilized form of UQ10, or in the presence of UQ10 only (+UQ10). For the 2 treatment conditions in A, the final UQ10 concentrations in the media were the same—2.5 μM. In B, the final UQ10 concentrations in the media were 8 μM for the two treatment conditions. Values are mean±SEM (n=2). ****p<0.0001 (one-way ANOVA).
as §1

The nature of data set [14]: Solubilization of curcumin in water. It counts as physicochemical. From the text: It is important to note that in contrast with the other surfactants tested, McC1 is non-toxic and can be used in intravenous injection.
[15] abbreviates: in combination with UQ10, vs UQ10 alone.

Turning to `CC[C@H](C)C[C@H](C)CCCCCCCCC(=O)N[C@H]1C[C@@H](O)[C@@H](NCCN)NC(=O)[C@@H]2[C@@H](O)CCN2C(=O)[C@H]([C@H](O)CCN)NC(=O)[C@H]([C@H](O)[C@@H](O)c2ccc(O)cc2)NC(=O)[C@@H]2C[C@@H](O)CN2C(=O)[C@H]([C@@H](C)O)NC1=O` [McC1, Caspofungin], the “surfactant (drop collapse) activity” value in data set [1] is “moderate surfactant activity”. For the same molecule, the “increase in aqueous solubility of UQ10” value in data set [2] was “more than 1,200,000 fold”. For the same molecule, the “water solubility of UQ10 in the presence of the compound” value in data set [2] is recorded as “greatly increased”. Further, the “intracellular concentration of UQ” value in data set [3] (compound used alone) and in data set [4] (compound used alone) was “no effect” each time. The “cellular uptake of exogenous UQ10” value in data set [3] (setting [15]) and in [4] (setting [15]) was “increased uptake of exogenous UQ10 into cells” in each case. Further, the “mitochondrial respiration (OCR) compared with UQ10 treatment alone” value in data set [5] (co-treatment with UQ10) is listed as “greater increase of mitochondrial respiration”. Besides, the “survival of DKO cells in galactose medium” value is “no effect” in [6] (compound by itself, no UQ10 added) and “able to rescue the mutant cells from death” in data set [6] (in the presence of a minimal amount of UQ10). The “uptake of exogenous UQ10 into mitochondria” value in data set [7] and in data set [8] was “significantly increased uptake of exogenous UQ10 into mitochondria” each time. For the same molecule, the “effect on cell growth and survival” value in data set [9] was “no observable toxicity”.

As for `CC(=O)O[C@H]1C(=O)[C@@]2(C)[C@H]([C@H](OC(=O)c3ccccc3)[C@]3(O)C[C@H](OC(=O)[C@H](O)[C@@H](NC(=O)c4ccccc4)c4ccccc4)C(C)=C1C3(C)C)[C@]1(OC(C)=O)CO[C@@H]1C[C@@H]2O` [PTX, Paclitaxel], the “solubility of PTX in water-only control” value in data set [10] is “not soluble in water”.

Turning to `CCCCCCCCCCCCCC[N+](C)(C)C.[Br-]` [TTAB, Tetradecyl trimethyl ammonium bromide], the “cellular uptake of UQ10 compared to adding UQ10 alone” value in data set [11] was “increased cellular uptake of UQ10”.

As to `COC1=C(OC)C(=O)C(C/C=C(\C)CC/C=C(\C)CC/C=C(\C)CC/C=C(\C)CC/C=C(\C)CC/C=C(\C)CC/C=C(\C)CC/C=C(\C)CC/C=C(\C)CCC=C(C)C)=C(C)C1=O` [UQ10, ubiquinone-10], the “soluble UQ10 in the water-only control” value in data set [2] was “no detectable soluble UQ10”. The figures for the “survival of Mclk1 KO cells in galactose medium” value in data set [12] (UQ10 0.5 μM (FIG. 3C)) and in [12] (UQ10 10 μM (FIG. 3C)) were “little effect” and “almost full rescue”, respectively. Besides, the “cellular UQ10 levels” value is “no effect on intracellular UQ10 levels” in data set [4] (1 hour treatment, mouse cells (FIG. 15)) and “no effect on intracellular UQ10 levels” in data set [13]. In data set [5] (UQ10 at sufficient doses, Mclk1 SKO and Pdss2/Mclk1 DKO cells), the “rates of mitochondrial respiration” value is “increases rates of mitochondrial respiration”. Moreover, the “rescue from galactose-induced cell death by UQ supplementation” value in data set [6] (if provided at a sufficient amount) is recorded as “sufficient to rescue them from galactose-induced cell death”.

Turning to `COc1cc(/C=C/C(=O)CC(=O)/C=C/c2ccc(O)c(OC)c2)ccc1O` [curcumin], in [14], the “solubility of free curcumin in water” value is reported as “very low solubility in water”.

In the case of Benzalkonium chloride [BAC], in data set [11], the “cellular uptake of UQ10 compared to adding UQ10 alone” value was “increased cellular uptake of UQ10”.
